This note sets out measurements from US5968817A, “DNA encoding serotonin receptors” (priority 1993, dated 1999).

In test [1] the test system is suprachiasmatic nucleus (SCN) neuronal activity. Briefly: Effects of serotonergic agents on circadian rhythm of neuronal activity in suprachiasmatic nucleus slices. To be noted: for effect of antagonist on the 8-OH-DPAT-dependent phase shift: antagonist 15 min before, during and 15 min after 1 hour 8-OH-DPAT. On the procedure:
This was followed by the normal perfusion medium. Horizontal bars: time of lights-off in donor colony; vertical bars: time of treatment; dotted line: mean time of peak in untreated slices.
The effects of serotinergic agents on the neuronal activity as measured against circadian time in the suprachiasmatic nucleus (SCN) were measured. […] This was followed by the normal perfusion medium.

The target in test [2] is T1, REC20 serotonin receptor (5-HT6) (Rattus norvegicus, UniProt P32305).
T1 construct: encodes a putative protein of 435 amino acids; expressed in transfected cells; host or cells: CosM6 (subclone of COS-7), transient, vector pCMV4
Briefly: [125I]-LSD competition binding to membranes of CosM6 cells expressing REC20.

Test [3] deals with T2, MR22 serotonin receptor (5-HT5β) (Rattus norvegicus, UniProt P35365).
T2 construct: contains an open reading frame (ORF) encoding 370 amino acids; expressed in transfected cells; host or cells: CosM6 (subclone of COS-7), transient, vector pCMV4
Briefly: [125I]-LSD competition binding to membranes of CosM6 cells expressing MR22.

In test [4] the target is T3, REC17 serotonin receptor (5-HT5α) (Rattus norvegicus, UniProt P35364).
T3 construct: contains an ORF encoding 357 amino acids; expressed in transfected cells; host or cells: CosM6 (subclone of COS-7), transient, vector pCMV4
Briefly: [125I]-LSD competition binding to membranes of CosM6 cells expressing REC17.

Test [5] concerns the target T4, MR77 serotonin receptor (5-HT1E-Like) (Rattus norvegicus, UniProt P30940).
T4 construct: expressed in transfected cells; host or cells: CosM6 (subclone of COS-7), transient, vector pCMV4
T4 sequence (P30940 1-366): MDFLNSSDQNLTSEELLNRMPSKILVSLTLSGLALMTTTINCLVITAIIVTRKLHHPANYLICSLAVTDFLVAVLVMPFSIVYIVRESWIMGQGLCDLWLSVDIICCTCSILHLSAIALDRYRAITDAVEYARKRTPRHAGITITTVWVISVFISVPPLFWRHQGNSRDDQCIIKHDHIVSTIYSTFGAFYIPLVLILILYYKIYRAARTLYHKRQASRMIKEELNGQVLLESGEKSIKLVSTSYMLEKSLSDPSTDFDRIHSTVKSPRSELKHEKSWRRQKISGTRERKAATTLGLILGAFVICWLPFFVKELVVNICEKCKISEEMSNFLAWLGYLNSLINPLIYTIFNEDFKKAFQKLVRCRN
Briefly: [125I]-LSD competition binding to membranes of CosM6 cells expressing MR77.

[6] abbreviates: CosM6 membranes, 1 nM [125I]-LSD, 60 min 37° C., read-out: IC50 for competition with 125I-LSD, Rec20.
The mark [7] stands for this setting: CosM6 membranes, 1 nM [125I]-LSD, 60 min 37° C., read-out: IC50 for competition with 125I-LSD, MR77.

SMILES strings stand for the structures. Where two headings read alike, the source gives them in different places.

T3 sequence (P35364 whole entry): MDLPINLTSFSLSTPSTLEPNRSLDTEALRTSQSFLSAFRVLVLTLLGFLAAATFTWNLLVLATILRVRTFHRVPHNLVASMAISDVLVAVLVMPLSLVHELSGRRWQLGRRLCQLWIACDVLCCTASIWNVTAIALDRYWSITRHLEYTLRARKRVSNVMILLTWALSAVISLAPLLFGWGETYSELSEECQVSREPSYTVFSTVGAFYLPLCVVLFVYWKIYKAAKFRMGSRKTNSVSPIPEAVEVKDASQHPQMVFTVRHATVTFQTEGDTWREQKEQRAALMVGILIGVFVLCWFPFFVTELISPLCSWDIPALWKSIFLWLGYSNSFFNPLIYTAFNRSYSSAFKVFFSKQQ
T2 sequence (P35365 whole entry S4C/P322A): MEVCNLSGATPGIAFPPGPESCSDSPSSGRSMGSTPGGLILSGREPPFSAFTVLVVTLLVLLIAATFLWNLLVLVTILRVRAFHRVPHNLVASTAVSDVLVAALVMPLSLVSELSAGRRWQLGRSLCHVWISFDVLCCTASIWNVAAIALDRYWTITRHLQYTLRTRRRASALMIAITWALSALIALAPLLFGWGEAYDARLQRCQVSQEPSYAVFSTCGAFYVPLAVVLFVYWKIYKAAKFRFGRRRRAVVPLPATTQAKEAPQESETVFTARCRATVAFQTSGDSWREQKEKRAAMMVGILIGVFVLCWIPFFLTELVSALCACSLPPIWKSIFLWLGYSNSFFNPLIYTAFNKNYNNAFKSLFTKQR
T1 sequence (P32305 1-435): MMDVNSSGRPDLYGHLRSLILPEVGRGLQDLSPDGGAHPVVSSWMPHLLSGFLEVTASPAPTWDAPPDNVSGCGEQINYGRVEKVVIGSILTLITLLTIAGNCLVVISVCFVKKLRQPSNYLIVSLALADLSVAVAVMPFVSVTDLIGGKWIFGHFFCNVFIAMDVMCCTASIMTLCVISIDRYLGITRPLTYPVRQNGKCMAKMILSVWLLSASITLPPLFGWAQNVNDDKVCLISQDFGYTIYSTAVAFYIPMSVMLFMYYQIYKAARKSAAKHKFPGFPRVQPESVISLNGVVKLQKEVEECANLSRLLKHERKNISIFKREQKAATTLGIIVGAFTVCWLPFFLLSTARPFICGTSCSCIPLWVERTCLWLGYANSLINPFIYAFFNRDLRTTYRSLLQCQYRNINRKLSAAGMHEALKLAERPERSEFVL

For `CC(C)NCC(O)COc1cccc2[nH]ccc12` (stereo not drawn) [Pindolol], the “effect of antagonist on the 8-OH-DPAT-dependent phase shift” value in test [1] is “has no effect”. In addition, the 50% inhibitory concentration (IC50) in test [2] (setting [6]) was > 1000 nM.

Take `NCCc1c[nH]c2ccc(C(N)=O)cc12` [Ligand 5-CT, 5-carboxyamidotryptamine]: the IC50 in test [3] is 285 nM; in test [2] (setting [6]), 0.8 nM; in test [4], 20.4 nM; in test [5] (setting [7]) it was > 1000 nM. Besides, the “sensitivity of MR22 to the ligand (in words)” value (“sensitivity of MR22” for short) in test [3] is on record as “sensitive”. Also, the “sensitivity of radiolabeled LSD binding to REC20 to the ligand (in words)” value (from here on “sensitivity … to REC20 to the ligand (in words)”) in test [2] is “displace”. The “sensitivity of REC17 to the ligand (in words)” value (“sensitivity of REC17” below) in test [4] is on record as “sensitive”. In test [5], the “sensitivity of radiolabeled LSD binding to MR77 to the ligand (in words)” value (“sensitivity … to MR77 to the ligand (in words)” below) is listed as “insenstive”.

In the case of `CCN(CC)C(=O)[C@@H]1C=C2c3cccc4[nH]c([125I])c(c34)C[C@H]2N(C)C1` [[^125 I]-LSD], in test [3] (transfected CosM6 cells), the “binding of [125I]-LSD to MR22 broken cell preparations (in words)” value is on record as “saturable binding”. For the same molecule, the “binding of [125I]-LSD to REC20 broken cell preparations (in words)” value in test [2] (transfected CosM6 cells) is reported as “saturable binding”. For the same molecule, the “binding of [125I]-LSD to REC17 broken cell preparations (in words)” value in test [4] (transfected CosM6 cells) is listed as “saturable binding”. For the same molecule, the “binding of [125I]-LSD to MR77 broken cell preparations (in words)” value in test [5] (transfected CosM6 cells) is recorded as “saturable binding”.

For `CNS(=O)(=O)Cc1ccc2[nH]cc(CCN(C)C)c2c1` [Sumatriptan], in test [3], the IC50 was > 1000 nM and the “sensitivity of MR22” value is “insensitive”. Further, the IC50 in test [2] (setting [6]) is > 1000 nM. Besides, in test [4], the IC50 was > 1000 nM and the “sensitivity of REC17” value was “insensitive”. For the same molecule, the “sensitivity … to MR77 to the ligand (in words)” value in test [5] is listed as “sensitive”.

Take `CN1C[C@H](CNC(=O)OCc2ccccc2)C[C@@H]2c3cccc4c3c(cn4C)C[C@H]21` [Metergoline]: the IC50 is > 1000 nM in test [3], 17 nM in test [2] (setting [6]), > 1000 nM in test [4] and 535 nM in test [5] (setting [7]).

As to `CC[C@@H](CO)NC(=O)[C@@H]1C=C2c3cccc4c3c(cn4C)C[C@H]2N(C)C1` [Methysergide], the IC50 in test [3] was > 1000 nM; in test [2], 32 nM; in test [4] it was 310 nM; in test [5], 14 nM.

`CN1C[C@H](C(=O)N[C@]2(C)O[C@@]3(O)[C@@H]4CCCN4C(=O)[C@H](Cc4ccccc4)N3C2=O)C=C2c3cccc4[nH]cc(c34)C[C@H]21` [Ergotamine]: the IC50 in test [3] was 22 nM; in test [2] it was 33 nM; in test [5] it was 55 nM. In test [3], the “sensitivity of MR22” value is recorded as “sensitive”.

Consider `CCCN(CCC)C1CCc2cccc(O)c2C1` (stereo not drawn) [Ligand 8-OH-DPAT], for which, in test [3], the IC50 is > 1000 nM and the “sensitivity of MR22” value was “insensitive”. In addition, the “phase advance in the circadian rhythm of spontaneous neuronal activity in the SCN” value in test [1] (slice bath treatment for 1 hour) lay within 2 to 3 h. Besides, in test [2], the “sensitivity … to REC20 to the ligand (in words)” value is “displace”. Also, the half-inhibitory concentration (IC50) in test [2] (setting [6]) amounted to 97 nM. In test [4], the IC50 was > 1000 nM and the “sensitivity of REC17” value is “insensitive”. Moreover, in test [5], the “sensitivity … to MR77 to the ligand (in words)” value was “insenstive”.

As to `CN1C[C@@H](NS(=O)(=O)N(C)C)C[C@@H]2c3cccc4c3c(cn4C)C[C@H]21` [Mesulergine], the IC50 in test [3] was > 1000 nM; in test [2] (setting [6]) it was 17 nM; in test [4], > 1000 nM; in test [5] (setting [7]), > 1000 nM.

Turning to `NCCc1c[nH]c2ccc(O)cc12` [Ligand 5-HT, 5-hydroxytryptamine], the results for the IC50 in test [4] and in test [5] (setting [7]) were 380 nM and 70 nM, respectively.

For `COC(=O)[C@@H]1[C@H]2C[C@H]3c4[nH]c5ccccc5c4CCN3C[C@@H]2CC[C@@H]1O` [Yohimbine], in test [5] (setting [7]), the IC50 amounted to 570 nM.

As to `O=C(c1ccc(F)cc1)C1CCN(CCn2c(=O)[nH]c3ccccc3c2=O)CC1` [ketanserin], in test [2], the “sensitivity … to REC20 to the ligand (in words)” value is “sensitive”.

With `Cc1nc2sccn2c(=O)c1CCN1CCC(=C(c2ccc(F)cc2)c2ccc(F)cc2)CC1` [Ritanserin], the “effect of antagonist on the 8-OH-DPAT-dependent phase shift” value in test [1] is “blocks”. For the same molecule, the IC50 in test [2] (setting [6]) came out at 60 nM.

On to `CSc1ccc2c(c1)C(N1CCN(C)CC1)Cc1ccccc1S2` (stereo not drawn) [Methiothepin], for which the “sensitivity of MR22” value in test [3] is “sensitive”. For the same molecule, in test [4], the IC50 was found to be 45 nM and the “sensitivity of REC17” value is listed as “sensitive”. The IC50 in test [5] (setting [7]) was > 1000 nM.
